Assay results taken from article PMC8336721 (ACS chemical neuroscience, 2020).
Where “and” joins values, the source holds several entries; their conditions need not be identical. Identical values can stand only once. Like-named read-outs stand apart in the source and are kept apart here.

What was measured:
mice [1] = assay: Formalin test; type: in vivo; conditions: s.c. 5 min before formalin, licking time phase II
mice [2] = assay: Conditioned place aversion
KOR [3] = biological target: T1, KOR (Homo sapiens, UniProt P41145); assay: GloSensor cAMP assay; type: cell-based; conditions: for more potent than U50,488H, inhibition of cAMP accumulation: EC50 ratio vs U50,488H
T1 sequence (P41145 whole entry): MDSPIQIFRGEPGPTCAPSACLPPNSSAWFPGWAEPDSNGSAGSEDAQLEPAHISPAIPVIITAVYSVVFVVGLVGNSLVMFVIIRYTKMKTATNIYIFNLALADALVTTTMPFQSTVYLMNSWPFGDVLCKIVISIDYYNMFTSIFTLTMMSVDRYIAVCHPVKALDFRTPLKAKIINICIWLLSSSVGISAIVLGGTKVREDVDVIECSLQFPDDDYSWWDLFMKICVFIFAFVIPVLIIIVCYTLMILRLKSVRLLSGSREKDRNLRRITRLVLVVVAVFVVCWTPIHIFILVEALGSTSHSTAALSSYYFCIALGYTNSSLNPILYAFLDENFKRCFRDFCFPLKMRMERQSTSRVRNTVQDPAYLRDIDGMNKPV

MOR = MOR (Rattus norvegicus, UniProt P33535); assay: [35S]GTPγS binding to membranes of CHO cells stably expressing the MOR; type: biochemical; conditions: for Maximal Effect, MOR: % of maximal [35S]GTPγS binding of reference full agonist DAMGO; for agonist type at the MOR: [35S]GTPγS binding
MOR, sequence (P33535 whole entry): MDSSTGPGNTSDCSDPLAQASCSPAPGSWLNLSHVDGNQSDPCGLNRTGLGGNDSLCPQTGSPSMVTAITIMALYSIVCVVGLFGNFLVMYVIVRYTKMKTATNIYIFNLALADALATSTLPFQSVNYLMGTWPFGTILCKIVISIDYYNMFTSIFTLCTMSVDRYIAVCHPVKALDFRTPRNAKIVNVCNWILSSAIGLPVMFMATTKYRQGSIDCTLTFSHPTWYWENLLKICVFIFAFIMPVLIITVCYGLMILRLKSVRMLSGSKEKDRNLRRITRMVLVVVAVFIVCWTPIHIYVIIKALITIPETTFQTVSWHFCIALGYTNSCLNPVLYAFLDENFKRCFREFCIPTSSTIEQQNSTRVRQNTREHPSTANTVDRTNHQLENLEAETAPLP

mice [4] = assay: Compound 48/80 scratching test; type: in vivo
NOR = NOR (Homo sapiens, UniProt P41146); assay: [35S]GTPγS binding to membranes of CHO cells stably expressing the NOR; type: biochemical; conditions: for agonist type at the NOR: [35S]GTPγS binding, relatively low potency
NOR, sequence (P41146 whole entry): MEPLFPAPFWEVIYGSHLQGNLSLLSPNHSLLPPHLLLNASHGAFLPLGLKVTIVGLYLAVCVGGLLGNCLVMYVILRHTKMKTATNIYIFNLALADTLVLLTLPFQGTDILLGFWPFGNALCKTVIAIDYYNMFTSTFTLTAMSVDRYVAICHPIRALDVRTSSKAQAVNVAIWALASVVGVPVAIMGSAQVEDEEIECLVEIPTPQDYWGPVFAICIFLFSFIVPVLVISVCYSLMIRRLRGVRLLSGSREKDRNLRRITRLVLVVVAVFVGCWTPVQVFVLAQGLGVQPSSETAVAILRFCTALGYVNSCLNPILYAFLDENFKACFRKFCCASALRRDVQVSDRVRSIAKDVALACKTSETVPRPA

mice [5] = assay: Novelty-induced locomotor activity; type: in vivo; conditions: 1, 3, 5 mg/kg s.c., 0–30 min post-injection
KOR [6] = biological target: T1, KOR; assay: [35S]GTPγS binding to membranes of CHO cells stably expressing the KOR; type: biochemical; conditions: for Maximal Effect, KOR: % of maximal [35S]GTPγS binding of reference full agonist (−)U50,488H
DOR = DOR (Mus musculus, UniProt P32300); assay: [35S]GTPγS binding to membranes of CHO cells stably expressing the DOR; type: biochemical; conditions: for agonist type at the DOR: [35S]GTPγS binding, relatively low potency
DOR, sequence (P32300 whole entry): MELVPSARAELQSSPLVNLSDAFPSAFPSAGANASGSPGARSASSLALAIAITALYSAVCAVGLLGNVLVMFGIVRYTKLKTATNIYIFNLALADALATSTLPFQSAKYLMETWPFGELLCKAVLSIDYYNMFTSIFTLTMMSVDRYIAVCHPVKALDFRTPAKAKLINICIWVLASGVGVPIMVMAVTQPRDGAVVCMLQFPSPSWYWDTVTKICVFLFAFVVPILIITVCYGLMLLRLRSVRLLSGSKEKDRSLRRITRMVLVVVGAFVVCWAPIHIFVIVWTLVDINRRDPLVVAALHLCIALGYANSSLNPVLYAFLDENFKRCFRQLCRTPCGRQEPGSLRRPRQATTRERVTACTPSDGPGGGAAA

KOR [7] = biological target: T1, KOR; assay: Tango assay; type: cell-based
mice [8] = assay: Rotarod test; type: in vivo
mice [9] = conditions: cited from earlier work
human KOR = assay: G protein bias from RAi of GloSensor cAMP and Tango assays; type: cell-based; conditions: RAi−G divided by RAi−b, U50,488H as balanced agonist
mice [10] = conditions: nalfurafine up to 20 μg/kg, U50,488 5 mg/kg; cited from earlier work
mice [11] = conditions: late phase of the formalin test; cited from earlier work
P-glycoprotein = conditions: cited from earlier work
mice [12] = conditions: cited from earlier work; remark: listed apart in the source
mouse = mouse tail flick test; cited from earlier work

Structure (SMILES): CN(C(=O)/C=C/c1ccoc1)[C@@H]1CC[C@@]2(O)[C@H]3Cc4cccc5c4[C@@]2(CCN3CC2CC2)[C@H]1O5 [42B]
- A50, formalin test (mice [1]): 2.08 mg/kg
- CPA (mice [2]; 1, 3, 5 mg/kg s.c., 6 days conditioning): did not cause CPA
- effect of MOR blockade by naloxone on lack of CPA (mice [2]; naloxone 1 mg/kg s.c. 25 min before 42B 3 mg/kg): did not affect its lack of CPA
- more potent than U50,488H, inhibition of cAMP accumulation (KOR [3]): ~ 2 fold
- GloSensor cAMP assay Emax (KOR [3]; maximal degree of inhibition, mean ± SEM n=3): 74.40±1.68%
- EC50 (KOR [3]; read-out: GloSensor cAMP assay EC50, inhibition of cAMP, mean ± SEM n=3): 0.82 ± 0.18 nM
- Maximal Effect, MOR (MOR): 49% and 48.87 ± 2.45%
- agonist type at the MOR (MOR): partial agonists
- effect of norBNI pretreatment on anti-scratch activity (mice [4]; norBNI 20 mg/kg i.p. 20 h before 42B 3 mg/kg): eliminated the anti-scratch activity
- A50, compound 48/80-induced scratching (mice [4]; s.c. 20 min before compound 48/80, bouts counted 30 min, mice): 2.82 mg/kg
- agonist type at the NOR (NOR): full agonism
- novelty-induced hyperlocomotion (mice [5]): significant and dose-dependent reduction
- Maximal Effect, KOR (KOR [6]): 91% and 91.34 ± 1.15%
- agonist type at the KOR (KOR [6]; [35S]GTPγS binding): full agonists
- EC50 (KOR [6]; read-out: EC50, KOR, [35S]GTPγS binding, CHO membranes, 100 mM NaCl, mean ± SEM n=3–4): 25.6 ± 1.5 nM
- Maximal Effect, DOR (DOR; % of maximal [35S]GTPγS binding of reference full agonist DPDPE): 134.7 ± 3.4%
- agonist type at the DOR (DOR): full agonism
- lower potency for β-arrestin recruitment than U50,488H (KOR [7]; EC50 ratio vs U50,488H): ~ 2 fold
- lower potency for β-arrestin recruitment than nalfurafine (KOR [7]; EC50 ratio vs nalfurafine): ~ 4 fold
- EC50 (KOR [7]; read-out: Tango assay EC50, β-arrestin2 recruitment, mean ± SEM n=3): 3.22 ± 0.42 nM
- Tango assay Emax (KOR [7]; β-arrestin2 recruitment, mean ± SEM n=3, % printed in b16 only): 116.8±1.0 %
- rotarod performance at 1 mg/kg (mice [8]; 1 mg/kg, at 10 min): significant effect
- rotarod performance (mice [8]; 1, 3, 5 mg/kg s.c., tested 10, 20, 30, 40 min): dose-dependently caused performance impairment
- time of peak effect in rotarod test (mice [8]; among time points tested 10–40 min): 10 min
- time of return to control level in rotarod test (mice [8]; mouse, in vivo): 40 min

Structure (SMILES): CN(C(=O)/C=C/c1ccoc1)[C@@H]1CC[C@@]2(O)[C@H]3Cc4ccc(O)c5c4[C@@]2(CCN3CC2CC2)[C@H]1O5 [Nalfurafine]
- rotarod performance (mice [9]; 20 μg/kg, at 30 min and 40 min following injection): small, yet significant, effects
- time of peak effect in rotarod test (mice [9]; slight lowering effect): 30 min
- G Biased factor (95% CI) (human KOR): 4.49 (1.79–11.1)
- G Biased factor (95% CI) (human KOR; listed as nalfurafine): 4.49
- more potent than U50,488H, inhibition of cAMP accumulation (KOR [3]): ~ 9 fold
- Emax (KOR [3]; HEK-293T, read-out: GloSensor cAMP assay Emax): 69.8 ± 1.53%
- more potent than 42B in inhibition of forskolin-stimulated adenylyl cyclase (Glosensor assay) (KOR [3]; nalfurafine vs 42B): ~ 5 X
- EC50 (MOR): 3.11 ± 0.63 nM
- Maximal Effect, MOR (MOR): 73.88 ± 2.93%
- agonist type at the MOR (MOR): partial agonists
- more potent than 42B in the anti-scratch test (mice [4]; A50 ratio nalfurafine vs 42B): about 340 x
- CPA (mice [10]): did not produce CPA
- EC50 (NOR): 280 ± 17.7 nM
- agonist type at the NOR (NOR): full agonism
- Emax (NOR; read-out: Maximal Effect, NOR): 120 ± 2.2%
- A50, formalin test (mice [11]): 5.8 µg/kg
- Maximal Effect, KOR (KOR [6]): 90.90 ± 3.25%
- agonist type at the KOR (KOR [6]; [35S]GTPγS binding): full agonists
- potency at the KOR higher than that of 42B (KOR [6]; [35S]GTPγS binding EC50 ratio, nalfurafine vs 42B): ~ 250 fold
- P-glycoprotein substrate (P-glycoprotein): P-glycoprotein substrate
- A50, compound 48/80-induced scratching (mice [12]): 8.0 µg/kg
- agonist type at the DOR (DOR): full agonism
- Emax (DOR; read-out: Maximal Effect, DOR): 129 ± 3.2%
- Emax (KOR [7]; HEK293, read-out: Tango assay Emax): 108 ± 2.6%

Structure (SMILES): C=CCN1CC[C@]23c4c5ccc(O)c4O[C@H]2C(=O)CC[C@@]3(O)[C@H]1C5 [naloxone]
- CPA or CPP in the naloxone experiment (mice [2]; naloxone 1 mg/kg alone, U50,488 5 mg/kg as positive control): Neither naloxone (1 mg/kg) alone nor a combination of naloxone (1 mg/kg) and 42B (3 mg/kg) caused CPA or CPP
- more potent in antagonizing morphine- than U50,488- or spiradoline-induced antinociception (mouse): 20–36 times

Structure (SMILES): Oc1ccc2c3c1O[C@H]1c4[nH]c5c(c4C[C@@]4(O)[C@@H](C2)N(CC2CC2)CC[C@]314)C[C@@]1(O)[C@H]2Cc3ccc(O)c4c3[C@@]1(CCN2CC1CC1)[C@H]5O4 [norBNI, nor-binaltorphimine]
- effect on compound 48/80-induced scratching, alone (mice [4]; norBNI 20 mg/kg i.p. 20 h before saline): no effects
